Structures can show the parent of a compound that is named as a salt. Where two headings read alike, the source gives them in different places.
How the values were obtained:
[1] = not given; remark: listed apart in the source

CC(NC(C)(C)C)C(=O)c1cccc(Cl)c1 (stereo not shown) [AB, bupropion hydrochloride]
stability / compatibility of bupropion hydrochloride (in words) (8 weeks): stable for the entire 8 weeks
ASSAY (25° C./60% RH, 4 wks): 97.6
TOTAL RS > LOQ (25° C./60% RH, 4 wks): <LOQ
ASSAY (25° C./60% RH, 8 wks): 100.2
TOTAL RS > LOQ (25° C./60% RH, 8 wks): 0.13
ASSAY (40° C./75% RH, 2 wks): 100.4
TOTAL RS > LOQ (40° C./75% RH, 2 wks): 0.43
ASSAY (40° C./75% RH, 4 wks): 99.3
TOTAL RS > LOQ (40° C./75% RH, 4 wks): 0.94
ASSAY (40° C./75% RH, 8 wks): 101.3
TOTAL RS > LOQ (40° C./75% RH, 8 wks): 1.16
ASSAY (50° C./ambient, 2 wks): 100.6
TOTAL RS > LOQ (50° C./ambient, 2 wks): 0.14
ASSAY (T = 0 (initial)): 100.4
TOTAL RS > LOQ (T = 0 (initial)): <LOQ

COc1ccc2c(c1)[C@]13CCCC[C@@H]1[C@H](C2)N(C)CC3 [AD, dextromethorphan hydrobromide monohydrate]
ASSAY ([1]; 25° C./60% RH, 4 wks): 102.5
TOTAL RS ([1]; 25° C./60% RH, 4 wks): 0.25
ASSAY ([1]; 25° C./60% RH, 8 wks): 100.2
TOTAL RS ([1]; 25° C./60% RH, 8 wks): 0.20
ASSAY ([1]; 40° C./75% RH, 4 wks): 101.5
TOTAL RS ([1]; 40° C./75% RH, 4 wks): 0.18
ASSAY ([1]; 40° C./75% RH, 8 wks): 100.1
TOTAL RS ([1]; 40° C./75% RH, 8 wks): 0.72
ASSAY ([1]; T = 0 (initial)): 101.4
TOTAL RS ([1]; T = 0 (initial)): 0.21

From patent publication US12357697B2, “Pharmaceutical compositions comprising bupropion and cysteine” (AXSOME THERAPEUTICS, INC., priority 2022, dated 2025)
